Where “and” joins values, the source holds several entries; their conditions need not be identical. Equal values may be shown once. Read-outs that look alike come from different tables or passages of the source. Marks after values point to notes of the source that are not given here.
Tests used:
MCP10A = experiment: Cytotoxicity assay MCP10A; assay type: cell-based; settings: Homo sapiens, HU Breast, read-out: IC50 (SE) growth inhibition
Protocol: (§1) Multi-plex cytotoxicity assays were performed by the Keck-UWCCC Small Molecule Screening Facility (Madison, Wis.). Specific methodology can be found online at http://hts.wisc.edu/Resources.htm#mpa.

HT-29 = experiment: Cytotoxicity assay HT-29; assay type: cell-based; settings: Homo sapiens, HU Colorectal, read-out: IC50 (SE) growth inhibition
Protocol: as §1

HI299 = experiment: Cytotoxicity assay HI299; assay type: cell-based; settings: Homo sapiens, HU Lung, read-out: IC50 (SE) growth inhibition
Protocol: as §1

MCF7 = experiment: Cytotoxicity assay MCF7; assay type: cell-based; settings: Homo sapiens, HU Breast, read-out: IC50 (SE) growth inhibition
Protocol: as §1

HCT-45 = experiment: Cytotoxicity assay HCT-45; assay type: cell-based; settings: Homo sapiens, HU Colorectal, read-out: IC50 (SE) growth inhibition
Protocol: as §1

MB-MDA-231 = experiment: Cytotoxicity assay MB-MDA-231; assay type: cell-based; settings: Homo sapiens, HU Breast, read-out: IC50 (SE) growth inhibition
Protocol: as §1

Du145 = experiment: Cytotoxicity assay Du145; assay type: cell-based; settings: Homo sapiens, DU-145, HU Prostate, read-out: IC50 (SE) growth inhibition
Protocol: as §1

SF268 = experiment: Cytotoxicity assay SF268; assay type: cell-based; settings: Homo sapiens, SF-268, HU CNS, read-out: IC50 (SE) growth inhibition
Protocol: as §1

sigma-1 receptor [1] = target: T1, sigma-1 receptor (Cavia porcellus, UniProt Q60492); parameters: from tissue; host or cells: guinea pig liver membranes; settings: from Fontanilla et al. Biochemistry 2008; cited from earlier work
T1 sequence (Q60492 whole entry): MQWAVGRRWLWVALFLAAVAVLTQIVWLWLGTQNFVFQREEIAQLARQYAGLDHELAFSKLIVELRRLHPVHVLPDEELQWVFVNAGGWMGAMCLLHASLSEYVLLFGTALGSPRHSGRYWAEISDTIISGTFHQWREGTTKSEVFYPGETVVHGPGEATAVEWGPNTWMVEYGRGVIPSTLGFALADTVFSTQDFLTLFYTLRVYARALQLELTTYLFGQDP

A549 = experiment: Cytotoxicity assay A549; assay type: cell-based; settings: Homo sapiens, HU lung, read-out: IC50 (SE) growth inhibition
Protocol: as §1

sigma-2 receptor [2] = target: T2, sigma-2 receptor (Rattus norvegicus, UniProt Q5U3Y7); parameters: from tissue; host or cells: rat liver membranes; settings: from Fontanilla et al. Biochemistry 2008; cited from earlier work
T2 sequence (Q5U3Y7 1-176): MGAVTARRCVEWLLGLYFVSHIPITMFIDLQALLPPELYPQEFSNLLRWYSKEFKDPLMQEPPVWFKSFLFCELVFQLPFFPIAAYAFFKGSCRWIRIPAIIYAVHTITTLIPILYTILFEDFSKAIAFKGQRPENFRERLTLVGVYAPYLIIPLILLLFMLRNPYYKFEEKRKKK

SKOV-3 = experiment: Cytotoxicity assay SKOV-3; assay type: cell-based; settings: Homo sapiens, SK-OV-3, HU Ovarian, read-out: IC50 (SE) growth inhibition
Protocol: as §1

NCI-H460 = experiment: Cytotoxicity assay NCI-H460; assay type: cell-based; settings: Homo sapiens, HU lung, read-out: IC50 (SE) growth inhibition
Protocol: as §1

[3] = target: T3, purified sigma-1 receptor (Cavia porcellus, UniProt Q60492); experiment: Competitive displacement of [3H]-(+)-pentazocine at the pure sigma-1 receptor; assay type: binding, guinea pig; settings: read-out: Ki Pure σ-1R
T3 construct: made in house; host or cells: E. coli BL21 DE3
T3 sequence (Q60492 whole entry): as the sequence (Q60492 whole entry) above
Protocol: A guinea pig sigma-1 receptor was purified as previously described (Ramachandran et al., Protein Expr. Purif., 2007. 51(2): 283-92). The pMal P2X plasmid (New England Biolabs) encoding the guinea pig sigma-1 receptor on the C-terminus of the E. coli Maltose Binding Protein was used for purification. The sigma-1 receptor on its C-terminus carried a hexa-histadine epitope tag. Protein was expressed in the E. coli strain BL21 DE3 (Novagen) with 0.6 mM IPTG. The E. coli pellet was sonicated and centrifuged at 100,000 g for 1 hour to separate the particulate and soluble fractions. The particulate fraction was extracted with Triton X-100, centrifuged and the extract was loaded onto an amylose resin (New England Biolabs, E-802). After washing the resin with buffer containing 0.5% Triton X-100, the MBP-sigma-1 receptor fusion protein was eluted with buffer containing 10 mM maltose.
The MBP-sigma-1-receptor fusion protein was cleaved with Factor Xa protease (Novagen) at room temperature for 24-48 hours and the cleavage was monitored with SDS-polyacrylamide gel electrophoresis. The sigma-1 receptor from the Factor Xa cleavage was purified with a HIS-Select HC Nickel affinity gel (Sigma-Aldrich P6611) in a batch format. The resin was washed with buffer containing 0.5% Triton X-100 detergent and the beads were separated by a brief centrifugation at 4000 rpm in a microcentrifuge. After washing to remove MBP, the pure sigma-1 receptor was eluted in buffer containing 250 mM imidazole.
To remove the undigested MBP-sigma-1 receptor fusion protein that is carried over in the Ni^2+ purification, the eluate from the Ni^2+ purification was incubated with Anti-MBP antibody conjugated to agarose (Vector Laboratories, Burlingame, Calif.) at 4° C. for 18-24 hours. The beads were separated by centrifugation and the supernatant contained the pure sigma-1 receptor.
Competition ligand binding to the pure sigma-1 receptor was performed as previously described. […] After incubation at 30° C. for 60 minutes, the reaction was terminated by rapid filtration through glass fiber filters (Whatman GF/B), using a Brandel cell harvester (Brandel, Gaithersburg, Md.). The glass fiber filters were pre-soaked in 0.5% polyethyleneimine (PEI) for at least 1 hour at room temperature (˜23° C.). Filters were washed 4 times with 4 mL of ice-cold 50 mM Tris-C1, pH 8.0. Radioactivity was quantified by liquid scintillation counting using a Packard model 1600 CA scintillation counter.

Kv 1.4 K+ channel = target: T4, Kv 1.4 K+ channel (Rattus norvegicus, UniProt P15385); experiment: Whole cell patch clamp of Kv 1.4 K+ channel co-expressed with sigma-1 receptor in HEK-293 cells; assay type: cell-based; settings: for average inhibition of Kv 1.4 K+ channel: concentrations up to 300 μM, HEK-293
T4 construct: expressed in transfected cells; host or cells: HEK-293, transient, pIRES KvS1R plus pEGFP
T4 sequence (Q9R0C9 whole entry partner): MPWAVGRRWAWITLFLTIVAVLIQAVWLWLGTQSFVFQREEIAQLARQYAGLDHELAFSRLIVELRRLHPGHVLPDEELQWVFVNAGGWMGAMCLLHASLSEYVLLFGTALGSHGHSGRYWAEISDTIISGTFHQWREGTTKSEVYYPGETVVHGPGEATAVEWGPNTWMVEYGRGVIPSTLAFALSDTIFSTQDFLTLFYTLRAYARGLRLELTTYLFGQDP
T4 sequence (P15385 whole entry): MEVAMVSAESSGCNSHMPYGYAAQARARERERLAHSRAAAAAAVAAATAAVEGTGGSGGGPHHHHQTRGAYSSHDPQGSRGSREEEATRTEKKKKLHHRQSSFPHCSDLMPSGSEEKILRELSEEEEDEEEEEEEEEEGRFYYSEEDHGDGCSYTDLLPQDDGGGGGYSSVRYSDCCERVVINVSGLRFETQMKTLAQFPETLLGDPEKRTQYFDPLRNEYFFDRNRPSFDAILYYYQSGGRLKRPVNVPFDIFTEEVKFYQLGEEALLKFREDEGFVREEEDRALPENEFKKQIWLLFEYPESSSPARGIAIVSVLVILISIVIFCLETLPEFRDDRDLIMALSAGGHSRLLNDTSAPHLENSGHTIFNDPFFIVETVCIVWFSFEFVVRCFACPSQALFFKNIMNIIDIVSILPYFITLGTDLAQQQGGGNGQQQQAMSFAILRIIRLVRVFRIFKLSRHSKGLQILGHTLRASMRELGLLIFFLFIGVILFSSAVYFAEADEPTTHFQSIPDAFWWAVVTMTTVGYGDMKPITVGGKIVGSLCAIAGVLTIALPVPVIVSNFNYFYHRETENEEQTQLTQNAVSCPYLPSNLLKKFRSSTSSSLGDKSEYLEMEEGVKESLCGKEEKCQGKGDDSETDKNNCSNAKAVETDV
Protocol: After transfection (36-48 hours), whole cell K^+ currents were recorded from GFP positive HEK cells under voltage clamp using standard patch clamp techniques, using patch pipettes filled with (in mM) 120 KCl, 10 NaCl, 10 EGTA, 2 MgCl2, 2-4 MgATP, 0.3 NaGTP, 10 HEPES, pH 7.3.
The external solution was composed of (in mM) 130 NaCl, 4 KCl, 2 CaCl2, 1 MgCl2, 10 HEPES, pH 7.4 at room temperature (22-24° C.). Patch pipettes with resistances from 1-3 MΩ were fabricated from borosilicate glass (Garner Glass Co., CA). K^+ channels were activated by voltage step from −120 mV to 20 mV for 250 ms. Axopatch 200B, patch clamp amplifier interfaced to a PC running PCLAMP 7 (Axon Instruments) was used for data acquisition. Drugs were applied by a gravity feed system at a flow rate of 1-3 mL/minute. Series resistance compensation was used for cells with series resistance values higher than 10 MΩ. A 80-90% series resistance compensation was achieved on such cells.
K^+ currents were recorded using whole cell patch clamp technique.

sigma-1 receptor [4] = target: T1, sigma-1 receptor; experiment: Sigma-1 competitive binding, (+)-[3H]pentazocine, guinea pig liver membranes (Example 6); parameters: from tissue; host or cells: guinea pig liver membranes;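 also: compounds tested over serial concentrations, 45 min incubation at 30 °C with membrane preparations, read-out is displacement of bound radioligand from the receptor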
Protocol: (§3) Minced frozen rat livers or guinea pig livers (65 g) were thawed in 100 mL homogenization buffer (10 mM phosphate buffer pH 7.4 containing 0.32M sucrose, 1 M MgSO4, 0.5 M EGTA, 1 mM phenylmethylsulphonyl fluoride (PMSF), 10 μg/mlleupeptin, 1 μg/ml pepstatin A, 10 μg/ml p-toluenesulfonyl-L-arginine methyl ester (TAME) and then homogenized on ice with a Brinkman polytron homogenizer (setting 6, 4 bursts of 10 second each) followed by a glass homogenizer (Teflon pestle by 6 slow passes at 3,000 rpm). The homogenized tissues were then centrifuged at 17,000 g for 10 minutes. The supernatants were re-centrifuged at 100,000 g for 1 hour. The microsomal pellets were resuspended in homogenization buffer, snap frozen with dry ice-ethanol, and stored at −80° C. at a final protein concentration of 20 mg/mL.
(§4) Assays for sigma-1 were performed using 10 nM (+)-[^3H]pentazocine in guinea pig liver homogenates (25 μg/well) incubated at 30° C. for 1 hour with several concentrations of competing ligands. After incubation, membranes were harvested on a 0.5% PEI-treated Whatman GF/B filters using a Brandel Cell Harvester. (+)-[^3H]pentazocine binding was determined by liquid scintillation counting. […] Serial concentrations of the compounds evaluated were added to the reactions for 45 minutes at 30° C. and the samples vacuum filtered through 0.5% polyethyleneimine (PEI) treated Whatman GF/B as described above to measure displacement of the radioligands from the sigma receptor subtypes.

sigma-2 receptor [5] = target: T2, sigma-2 receptor; experiment: Sigma-2 competitive binding, [3H]-DTG with (+)-pentazocine, rat liver membranes (Example 6); parameters: from tissue; host or cells: rat liver membranes; settings: rat liver membranes, n = 3; read-out: Sigma2 KD values
Protocol: as §3, §4

tumor cell lines = experiment: Cytotoxicity assays, various tumor cell lines (statements in words); assay type: cell-based, human
Protocol: Because sigma-1 receptors are overexpressed in numerous tumor cell lines, which include breast cancer, lung carcinoma, renal carcinoma, colon carcinoma, sarcoma, brain tumors, melanoma, glioblastoma, neuroblastoma, and prostate cancer, the ability of the compounds to inhibit the growth of various tumor cell lines were tested.
as §1

sigma-1 receptor [6] = target: T5, sigma-1 receptor (Rattus norvegicus, UniProt Q9R0C9); experiment: Protection of [125I]-IACoc photolabeling in rat liver membranes; assay type: binding; settings: even at 50 and 100 μM
T5 construct: from tissue; host or cells: rat liver membranes
T5 sequence (Q9R0C9 whole entry): as the sequence (Q9R0C9 whole entry partner) above
Protocol: (§5) Rat liver membranes (100 μg/lane) were suspended in the presence or absence of the protecting drugs. […] Percent band intensities are shown compared to controls performed in the absence of protecting ligand (−).

sigma-2 receptor [7] = target: T2, sigma-2 receptor; experiment: Protection of [125I]IAF photolabeling of the sigma-2 receptor in rat liver membranes; assay type: binding; parameters: from tissue; host or cells: rat liver membranes
Protocol: as §5

sigma-2 receptor [8] = target: T2, sigma-2 receptor; experiment: Sigma-2 receptor competitive binding, trace amines; parameters: from tissue; host or cells: liver membranes (rat inferred); settings: read-out: Sigma-2R KD
Protocol: (§2) Competitive binding assays were performed as previously described (18) with the exception of testing new ligands shown in Table 4.

sigma-1 receptor [9] = target: T1, sigma-1 receptor; experiment: Competition assay against (+)-[3H]-pentazocine, trace amines; assay type: binding; parameters: from tissue
Protocol: as §2

sigma-1 receptor [10] = target: sigma-1 receptor (Homo sapiens, UniProt Q99720); settings: literature value; cited from earlier work
Chain of sigma-1 receptor (Homo sapiens, UniProt Q99720) (Q99720 whole entry, species assumed): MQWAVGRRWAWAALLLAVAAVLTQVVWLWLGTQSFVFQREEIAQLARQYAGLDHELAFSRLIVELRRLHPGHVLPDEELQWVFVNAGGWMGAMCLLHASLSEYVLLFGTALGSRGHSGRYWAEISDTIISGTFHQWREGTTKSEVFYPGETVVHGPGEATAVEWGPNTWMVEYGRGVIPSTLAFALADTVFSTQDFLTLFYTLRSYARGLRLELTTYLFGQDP

σ-1 Sites = target: T6, σ-1 Sites (Cavia porcellus, UniProt Q60492); experiment: σ-1 sites radioligand binding, guinea pig liver membranes (Table 2); settings: guinea pig liver membranes
T6 construct: from tissue
T6 sequence (Q60492 whole entry): as the sequence (Q60492 whole entry) above
Protocol: as §4

σ-2 Sites = target: T7, σ-2 Sites (Rattus norvegicus, UniProt Q5U3Y7); experiment: σ-2 sites radioligand binding, rat liver membranes (Table 2)
T7 construct: from tissue
T7 sequence (Q5U3Y7 1-176): T2 sequence (Q5U3Y7 1-176)
Protocol: as §4

SMILES	IC50 (MCP10A) [µM]	IC50 (HT-29) [µM]	IC50 (HI299) [µM]	IC50 (MCF7) [µM]	IC50 (HCT-45) [µM]	IC50 (MB-MDA-231) [µM]	IC50 (Du145) [µM]	IC50 (SF268) [µM]	IC50 (A549) [µM]	IC50 (SKOV-3) [µM]	IC50 (NCI-H460) [µM]	also measured
CCCN(CCCc1ccc(F)cc1)CCc1ccc(N)cc1 [Compound 20, N-propyl-N-(4-aminophenyl-ethyl)-3-(4-fluorophenyl)propylamine]	> 100	> 100	> 100	41.3	> 100	86.1	> 100	> 100	> 100	20.2	44.8	Kd (sigma-1 receptor [1]): 2.59 µM; Ratio (σ2/σ1) (sigma-1 receptor [1]): 0.046^c; Kd (sigma-2 receptor [2]): 120 nM
CCCCCCCN [Heptylamine]	–	–	–	–	–	–	–	–	–	–	–	Ki ([3]; [3H]-(+)-pentazocine 10 nM): 21.4 µM and 21 µM; average inhibition of Kv 1.4 K+ channel (Kv 1.4 K+ channel): 15%
CCCNCCc1ccc([N+](=O)[O-])cc1 [Compound 7, N-propyl-N-3-(4-nitophenyl)-ethylamine]	–	–	–	–	–	–	–	–	–	–	–	Ratio (σ2/σ1) (sigma-1 receptor [4]): 23.8; Kd (sigma-2 receptor [5]): 53.6 µM; melting point: 142 to 144 °C
CCCN(CCCc1ccc(F)cc1)CCc1ccc(N=[N+]=[N-])c(I)c1 [Compound 19]	86.6	36.4	90.8	16.8	54.1	21.6	13.1	38.8	> 100	> 100	40.3	cytotoxicity / tumor cell growth inhibition (tumor cell lines): non-specifically cytotoxic in almost all the cell lines tested; Kd (sigma-1 receptor [1]): 7.24 µM; Ratio (σ2/σ1) (sigma-1 receptor [1]): 0.178^c; Kd (sigma-2 receptor [2]): 1290 nM
CCCCN [Butylamine, reference compound]	–	–	–	–	–	–	–	–	–	–	–	Ki ([3]; [3H]-(+)-pentazocine 10 nM): 477 ± 67.5 µM; average inhibition of Kv 1.4 K+ channel (Kv 1.4 K+ channel): 21%
NCCc1c[nH]c2ccccc12 [Tryptamine]	–	–	–	–	–	–	–	–	–	–	–	protection of sigma-1 receptor [125I]-IACoc photolabeling (sigma-1 receptor [6]): protected minimally; protection of [125I]IAF sigma-2 receptor photolabeling (sigma-2 receptor [7]; 10 μM): 47%; protection of [125I]IAF sigma-2 receptor photolabeling (sigma-2 receptor [7]; 50 μM): 78%; protection of [125I]IAF sigma-2 receptor photolabeling (sigma-2 receptor [7]; 100 μM): 79%; Kd (sigma-2 receptor [8]): 4.91 µM; Kd (sigma-1 receptor [9]): 432 µM
COC(=O)C1C(OC(=O)c2ccc(N=[N+]=[N-])c(I)c2)CC2CCC1N2C (stereo not drawn) [[^125I]-IACoc, 3-[^125I]iodo-4-azidococaine]	–	–	–	–	–	–	–	–	–	–	–	Kd (sigma-1 receptor [10]): 0.126 nM
NCCc1ccc(O)cc1 [Tyramine]	–	–	–	–	–	–	–	–	–	–	–	Kd (sigma-1 receptor [9]; (+)-[3H]-pentazocine 10 nM, read-out: Sigma-1R KD): > 30000 µM
CCCCCCCNCCCc1ccccc1 [Compound 1c, N-(3-Phenylpropyl)heptane-1-amine]	–	–	–	–	–	–	–	–	–	–	–	Ki (σ-1 Sites): 15 nM; Ki ([3]; [3H]-(+)-pentazocine): 0.0184 µM; Ki (σ-2 Sites): 33 nM; EC50 (Kv 1.4 K+ channel; HEK-293 co-expressing sigma-1 receptor, read-out: EC50 for inhibition of the Kv 1.4 K+ channel): 10 µM
CCCN(CCCc1ccc(F)cc1)Cc1ccc(N)cc1 [Compound 17, N-Propyl-N-(4-amino-benzyl)-3-(4-fluorophenyl)propylamine]	> 100	> 100	> 100	> 100	> 100	> 100	> 100	> 100	> 100	> 100	> 100	cytotoxicity / tumor cell growth inhibition (tumor cell lines): lacked any cytotoxic properties; Ratio (σ2/σ1) (sigma-1 receptor [4]): 13.11 ^; Kd (sigma-1 receptor [4]; guinea pig liver membranes, n = 3, read-out: Sigma 1 KD values): 164 nM; Kd (sigma-2 receptor [5]): 2.15 µM

Source: patent publication US8946302B2, “Selective sigma-1 receptor ligands” (Wisconsin Alumni Research Foundation, priority 2008, dated 2015)
